What was measured:
[1] = target: CR3 (CD11b/CD18) expressed by normal human neutrophils (Homo sapiens, UniProt P11215); test: EAiC3b binding to adherent neutrophils (CR3); type: cell-based
Procedure: Purification and adherence of human neutrophils: Neutrophils were purified as described by Boyum et al. (Scand. J. Clin. Lab. Med. 97(suppl.):77, 1968), resuspended in divalent-cation-free Tris-HCl-saline buffer, pH 7.4 at 5×10^7/ml and kept on ice until used. Neutrophils (2×10^5 cells/well) were allowed to adhere to 96-well plates in Iscov's Modified Medium for one hour at 37° C., in a humidified incubator with 5% CO2. The wells were then washed, and […] of fluoresceinated EAiC3b or EA (at 1.5×10^8/ml) were added in the presence of 3% BSA, in a total volume of […], followed by 15 min incubation at 37° C. with 5% CO2. Wells were then washed and fluorescence quantified as described above.
The ability of A7 to inhibit EAiC3b binding to CR3 (CD11b/CD18) expressed by normal human neutrophils was measured under conditions similar to those used in assessing EAiC3b binding to rA-domain. EAiC3b binding to neutrophils is primarily mediated by CR3, but can also occur in vitro through complement receptor type 1 (CR1). The effect of A7 on EAiC3b binding was tested in nearly isotonic conditions and in the presence of blocking concentrations of a polyclonal anti-CR1 antibody (Ross et al., J. Exp. Med. 158:334, 1983). […] These findings indicate that A7 is the major site in CR3 responsible for its interaction with iC3b.

gelatin = test: A domain binding to gelatin
[2] = target: T1, biotinylated NIF binding to immobilized r11bA (Homo sapiens, UniProt P11215); test: Inhibition of biotinylated NIF binding to immobilized r11bA
T1 construct: recombinant CD11b A domain (rCD11bA) and recombinant CD11a A domain (r11aA) were expressed as GST fusion proteins; GST (N); made in house; host or cells: Escherichia coli
Procedure: Immobilization of Recombinant Proteins and Polypeptide: Purified rA-domain preparations (1 μg/well), soluble CD54, human fibrinogen (Sigma Chemical Co., St. Loius, Mo.), gelatin (BioRad-Laboratories) or BSA (Calbiochem-Behring Corp.) (each at 10 μg/well) or selected A-domain-derived peptides (10 μg) were added to Immulon-2 96-well microtiter plates (Dynatech Labs, Chantilly, Va.) overnight. Quantitation of adsorbed wild-type and mutant A-domain and synthetic peptides was done using the mAb 44 in an ELISA, and the BCA kit (from Pierce Chemical Co., Rockford, Ill.), respectively. […]
Biotinylation of recombinant NIP and Measurement of Binding to Immobilized Peptides: Recombinant NIP was labeled with sulfo-NHS-biotin as described by the manufacturer (Pierce Chemical Co.). […] Wells were then washed, incubated with alkaline phosphatase-coupled avidin, washed again, developed with substrate and quantified colormetrically using a microplate reader. […] In experiments where the effects of divalent cations on biotinylated rNIF binding to immobilized rCD11b A-domain were measured, VBSG^−− buffer (veronal-buffered saline, pH=7.4, containing 0.1% gelatin) containing 1 mM of Ca^2+, Mg^2+, Mn^2+, EDTA, EGTA, EGTA plus 1 mM MgCl2, or 1 mM MnCl2. […]

[3] = system: biotinylated NIF binding to human neutrophils; test: Inhibition of biotinylated NIF binding to neutrophils
Procedure: 100 μg of rNIF were labeled with sulfo-NHS-Biotin as described above. rNIF binding to resting or stimulated human neutrophils (pretreated with 10^−6 M f-met-leu-phe, for 15 minutes at 37° C., then washed) was measured. Increasing amounts of biotinylated rNIF in the absence or presence of 100-fold molar excess of unlabeled rNIF were incubated on ice for one hour with 1×10^6 neutrophils in VBSG^++ in a total volume of […]. Cells were then washed and incubated with phycoerythrin-coupled avidin (Sigma Chemical Co.) under similar conditions, washed again, fixed in 1% paraformaldehyde in PBS, and analyzed using FACScan (Becton Dickinson Co., Mountain View, Calif.). Mean channel fluorescence for each sample was then expressed as a function of the amount of biotinylated rNIF used. Background binding of phycoerythrin-streptavidin alone to neutrophils was subtracted (2.8 fluorescent units). Specific binding was obtained by […], and the values plotted according to Scatchard (Ann. N.Y. Acad. Sci. 51:660, 1949). To determine the effect of unlabeled fluid-phase-r11bA or GST on rNIF binding to neutrophils, each was preincubated at varying concentrations with biotinylated rNIF (20 ng/ml, final concentration) for 15 minutes on ice before addition of the mixture to neutrophils. The effect of mAbs on biotinylated NIF binding to neutrophils was assessed by preincubating the neutrophils with 100 μg/ml of each mAb at 4° C. for 15 minutes before addition of biotinylated NIF (20 ng/ml). The incubation then continued for one hour, followed by processing of cells for FACS analysis as described below.

## r11bA: recombinant human CD11b A domain (Cys128 to Glu321), expressed as GST fusion protein, used as such or after thrombin cleavage
[1]
  concentrations required for inhibition of iC3b binding to leukocytes: micromolar concentrations
gelatin
  binding of the A domain to gelatin: binds
[2]; dose dependent
  effect of fluid-phase protein on biotinylated rNIF binding to immobilized r11bA: abolished
[2]; fluid-phase protein, read-out: half-maximal inhibition of biotinylated rNIF binding to immobilized r11bA
  IC50: ~1 nM
[3]
  concentration range inhibiting NIF binding to leukocytes: low nM range
[3]; dose dependent
  effect of fluid-phase protein on biotinylated rNIF binding to human neutrophils: abolished
[3]; fluid-phase protein, read-out: half-maximal inhibition of biotinylated rNIF binding to human neutrophils
  IC50: ~1 nM
